From patent publication US20220175825A1, “COMPOSITION AND ASSOCIATED DELIVERY DEVICE FOR HYDROGEN THERAPY” (UNIVERSITE GRENOBLE ALPES, priority 2019, published 2022)

Assays:
[1] = cited from earlier work
[2] = kinetics of dihydrogen release on dissolution of a hydride composition in 30 mL PBS solution, according to pH; format: physicochemical; details: substantially 13 mg hydride in 30 mL PBS
[3] = pH of the PBS solution following dissolution of the hydride; format: physicochemical; details: after dissolution

Structure (SMILES)	saturation limit concentration in water [1] [ppm]	required time for reaching the release of about 1 ppm of dihydrogen after immersion ([2]; pH 5.8)	required time for reaching the release of about 1 ppm of dihydrogen after immersion ([2]; pH 7.4) [min]	required time for reaching the release of about 1 ppm of dihydrogen after immersion ([2]; pH 8.45) [min]	pH of the PBS solution following the dissolution of the hydride [3]
[HH] [dihydrogen]	1.57	–	–	–	–
[H-].[H-].[Mg+2] [magnesium hydride]	–	about 30 seconds	~4	~5	10
